For assay [1], the target named is T1, human GlyR α1 subunit P96A (Homo sapiens, UniProt P23415, P124A).
T1 construct: expressed in transfected cells; host or cells: Xenopus laevis oocytes injected with receptor mRNA
T1 sequence (P23415 29-457 P124A): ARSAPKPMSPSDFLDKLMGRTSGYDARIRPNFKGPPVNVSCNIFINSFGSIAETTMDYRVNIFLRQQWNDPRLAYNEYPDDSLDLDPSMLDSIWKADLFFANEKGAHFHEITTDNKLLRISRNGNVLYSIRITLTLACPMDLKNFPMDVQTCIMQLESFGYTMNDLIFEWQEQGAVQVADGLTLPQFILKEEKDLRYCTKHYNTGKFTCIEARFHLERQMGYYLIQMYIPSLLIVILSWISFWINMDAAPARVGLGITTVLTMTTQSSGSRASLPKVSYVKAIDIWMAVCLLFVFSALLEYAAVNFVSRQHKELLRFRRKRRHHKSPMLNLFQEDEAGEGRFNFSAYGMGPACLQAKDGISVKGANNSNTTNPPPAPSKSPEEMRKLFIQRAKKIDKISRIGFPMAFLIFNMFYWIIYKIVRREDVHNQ
Kind of assay: Two-electrode voltage clamp of Xenopus oocytes expressing P96A GlyR. It is filed as cell-based. The following applies: for nH (Hill coefficient): Table 1, n = 5; for EC50: Table 1, −60 mV. As for the experimental part:
(§1) Injection volumes were 50–100 nL per cell.
(§2) All experiments were performed at 22–25 °C. […] The holding potential was −60 mV unless otherwise specified.

Assay [2] deals with T2, human GlyR α1 subunit P146A (Homo sapiens, UniProt P23415, P174A).
T2 construct: expressed in transfected cells; host or cells: Xenopus laevis oocytes injected with receptor mRNA
T2 sequence (P23415 29-457 P174A): T1 sequence (P23415 29-457 P124A) with A96P, P146A
The experiment in a line: Two-electrode voltage clamp of Xenopus oocytes expressing P146A GlyR. It is filed as cell-based. The following applies: for nH (Hill coefficient): Table 1, n = 5; for EC50: Table 1, −60 mV. The procedure: as §1, §2

Assay [3] addresses human GlyR α1 subunit P230 (M1) substituted with Pro (Homo sapiens, UniProt P23415). The following applies: Table 2, n = 4. The procedure:
(§3) The cDNA for the human GlyR α1 subunit was in pGEMHE (ThermoFischer Scientific, Bishops Stortford, UK). Site-directed mutagenesis was performed using QuikChange (Agilent Technologies, Milton Keynes, UK) to generate the appropriate codon. For non-canonical amino acid mutants and conventional mutants generated by nonsense suppression, the site of interest was mutated to the TAG stop codon. Receptor mRNA was then prepared by in vitro runoff transcription using the Ambion T7 mMessage mMachine kit (ThermoFischer Scientific, Bishops Stortford, UK). Noncanonical amino acids were ligated to tRNA as previously described.
(§4) Stage V-VI oocytes of Xenopus laevis were harvested and injected with RNAs as described previously. For nonsense suppression experiments, each cell was injected with 50–100 ng each of receptor mRNA and tRNA charged with the appropriate Pro analogue ~48 h before recording. For wild type and conventional mutants, each cell received a single injection of 10–25 ng of receptor mRNA ~24 h before recording. Injection volumes were 50–100 nL per cell.
(§5) As a negative control for suppression experiments at each site, unligated tRNA was co-injected with mRNA in the same manner as charged tRNA. […] Pro recovery (injecting tRNA charged with Pro to regenerate a wild type channel via nonsense suppression) was used alongside Pro analogues as a positive control.
(§6) Two-electrode voltage clamping of Xenopus oocytes was performed using standard electrophysiological procedures as previously, using an OpusXpress system (Axon Instruments, Inc., Union City, CA, USA). All experiments were performed at 22–25 °C. […] The holding potential was −60 mV unless otherwise specified. […] Data were analysed using Prism (GraphPad Software Inc., San Diego, CA, USA), fitting concentration-response data to the four-parameter logistic equation. Statistical analysis was performed using ANOVA with a Dunnett’s multiple comparisons post test.

The subject of assay [4] is human GlyR α1 subunit P230 (M1) substituted with TFP. As for the experimental part: as §3, §4, §5, §6
In assay [5] the test system is human GlyR α1 subunit P146 (CysL) substituted with TFP. As for the experimental part:
as §3, §4, §5, §6

Assay [6] concerns human GlyR α1 subunit P96 (loopA) substituted with 3MeP. Conditions: Table 2, P96 3MeP, n = 4. As for the experimental part:
as §3, §4, §5, §6

Assay [7] has as its system human GlyR α1 subunit P96 (loopA) substituted with Pip. As for the experimental part: as §3, §4, §5, §6
The test system of assay [8] is human GlyR α1 subunit P230 (M1) substituted with CFP. As for the experimental part:
as §3, §4, §5, §6

Assay [9] relates to human GlyR α1 subunit P96 (loopA) substituted with Vah. As for the experimental part:
as §3, §4, §5, §6

Assay [10] has as its system human GlyR α1 subunit P96 (loopA) substituted with CFP. As for the experimental part: as §3, §4, §5, §6
Assay [11] has as its system human GlyR α1 subunit P30 (α1β1L) substituted with Vah. As for the experimental part: as §3, §4, §5, §6
For assay [12], the system named is human GlyR α1 subunit P30 (α1β1L) substituted with TFP. The procedure:
as §3, §4, §5, §6

Assay [13] relates to human GlyR α1 subunit P230 (M1) substituted with 2MeP. Conditions: Table 2, P230 2MeP, n = 4. The procedure:
as §3, §4, §5, §6

Setting [14] is: n = 5, read-out: pEC50 (converted).
The mark [15] stands for this setting: Table 2, nonsense suppression, n = 4.
The mark [16] stands for this setting: Table 2, nonsense suppression, n = 5.

Each structure is given as a SMILES string. Numbering of substitutions follows the chain as printed. Where two headings read alike, the source gives them in different places.

human GlyR α1 subunit P230 (M1) substituted with Pro, sequence (P23415 29-457): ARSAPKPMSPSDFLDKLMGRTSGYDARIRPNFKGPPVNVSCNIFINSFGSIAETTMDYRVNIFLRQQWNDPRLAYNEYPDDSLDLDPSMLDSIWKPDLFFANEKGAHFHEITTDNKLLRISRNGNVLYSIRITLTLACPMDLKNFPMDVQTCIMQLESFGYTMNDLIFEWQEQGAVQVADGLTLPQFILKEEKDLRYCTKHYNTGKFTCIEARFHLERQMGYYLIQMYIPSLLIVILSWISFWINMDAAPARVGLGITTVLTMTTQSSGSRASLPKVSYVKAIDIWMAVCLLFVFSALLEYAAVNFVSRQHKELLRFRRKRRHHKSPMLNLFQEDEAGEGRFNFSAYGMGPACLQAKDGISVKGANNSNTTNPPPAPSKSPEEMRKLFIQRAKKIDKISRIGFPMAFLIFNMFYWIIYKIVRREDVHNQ

Regarding `NCCS(=O)(=O)O` [Tau, taurine], the “nH (Hill coefficient)” value is on record as 1.9 ± 0.2 in assay [1] and 1.5 ± 0.3 in assay [2]. Besides, the EC50 in [1] (n = 5, read-out: EC50) is 2440 µM; in assay [1] (setting [14]), 2440 µM; in [2] (n = 5, read-out: EC50), 1410 µM; in assay [2] (setting [14]), 1410 µM. For the same compound, the results for the “% ImaxTau /ImaxGly” value in assay [1] (n = 5) and in assay [2] (n = 5) were 36 ± 2 % and 39 ± 3 %, respectively.

With `NCC(=O)O` [Gly, glycine], the nH was determined as 2.5 ± 0.9 in assay [3]; 3.0 ± 1.4 in [4] (Table 2, n = 4); 2.3 ± 0.4 in assay [5] (Table 2, n = 5); 3.0 ± 0.2 in assay [6]; 2.9 ± 0.3 in [7] (Table 2, n = 4); 1.4 ± 0.2 in assay [8] (Table 2, n = 4). For the same compound, the nH in assay [9] (Table 2, n = 4) was 1.5 ± 0.3; in assay [10] (Table 2, n = 4), 3.2 ± 0.7; in assay [11] (Table 2, n = 4), 3.8 ± 0.5; in [12] (Table 2, n = 5) it was 2.7 ± 1.3; in [13], 1.6 ± 0.5. Moreover, the EC50 in assay [4] (setting [15]) came out at 125 µM; in assay [5] (setting [16]), 156 µM; in [6] (nonsense suppression), 514 µM; in [7] (setting [15]) it was 215 µM; in assay [8] (setting [15]), 74 µM; in assay [9] (setting [15]), 94 µM. Besides, the EC50 in [10] (setting [15]) worked out at 145 µM; in [11] (setting [15]) it was 21 µM; in assay [12] (setting [16]), 97 µM; in assay [13] (nonsense suppression), 177 µM. Besides, the pEC50 was found to be 3.904 ± 0.06 M in [4] (setting [15]); 3.806 ± 0.05 M in assay [5] (setting [16]); 3.289 ± 0.02 M in assay [6] (nonsense suppression); 3.667 ± 0.02 M in assay [7] (setting [15]); 4.131 ± 0.04 M in assay [8] (setting [15]); 4.029 ± 0.05 M in assay [9] (setting [15]). The pEC50 in assay [10] (setting [15]) is reported as 3.840 ± 0.05 M; in assay [11] (setting [15]) it was 4.684 ± 0.03 M; in [12] (setting [16]) it was 4.013 ± 0.05 M; in [13] (nonsense suppression), 3.751 ± 0.08 M. In addition, the “nH (Hill coefficient)” value in assay [1] is on record as 2.2 ± 0.3; in assay [2], 2.4 ± 0.7.

(Values after article PMC9607081 (Membranes, 2022).)
